In ChEMBL document CHEMBL5143569 one finds ΔTm data, which are given here for 31 compounds.

The assay addresses T1, Tyrosine-protein phosphatase non-receptor type 11 (Homo sapiens) (UniProt Q06124).
T1 sequence (whole entry): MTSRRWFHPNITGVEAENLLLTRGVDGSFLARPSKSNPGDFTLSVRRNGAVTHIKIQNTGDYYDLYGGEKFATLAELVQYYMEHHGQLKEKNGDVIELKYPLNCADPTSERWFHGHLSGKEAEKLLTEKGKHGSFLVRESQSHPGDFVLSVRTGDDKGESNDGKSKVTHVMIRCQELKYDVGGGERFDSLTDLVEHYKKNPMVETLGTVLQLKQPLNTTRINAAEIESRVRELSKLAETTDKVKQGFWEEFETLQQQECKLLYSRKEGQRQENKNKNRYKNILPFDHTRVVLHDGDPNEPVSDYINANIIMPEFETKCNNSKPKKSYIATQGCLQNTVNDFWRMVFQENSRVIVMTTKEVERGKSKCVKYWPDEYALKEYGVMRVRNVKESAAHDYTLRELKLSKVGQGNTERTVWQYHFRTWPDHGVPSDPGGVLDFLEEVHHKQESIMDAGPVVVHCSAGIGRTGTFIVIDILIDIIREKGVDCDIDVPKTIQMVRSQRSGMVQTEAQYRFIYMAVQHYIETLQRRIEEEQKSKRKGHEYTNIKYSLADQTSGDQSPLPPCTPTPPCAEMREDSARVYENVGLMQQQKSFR
Conditions: filed as negative allosteric modulator.
Description: Allosteric inhibition of recombinant human SHP2 assessed as change in melting temperature by SYPRO orange dye based thermal shift assay
In general, ΔTm refers to the shift of the melting midpoint relative to a reference. Regarding `CNC1CCN(c2cnc(-c3cccc(Cl)c3Cl)c(N)n2)CC1`, the ΔTm came to 3.06 °C.

With `CC1(CN)CCN(c2cnc(Sc3cccc(Cl)c3Cl)c(N)n2)CC1`, the ΔTm amounted to 7.01 °C. As for `CC1(N)CCN(c2cnc(Sc3ccccc3C(F)(F)F)c(N)n2)CC1`, the shift in melting temperature (ΔTm) stood at 3.45 °C. With `CC1(N)CCN(c2cnc(-c3cccc(F)c3F)c(N)n2)CC1`, the ΔTm worked out at 0.52 °C. On to `CC1(N)CCN(c2cnc(Sc3ccccc3)c(N)n2)CC1`, for which the ΔTm turned out to be 1.72 °C. In the case of `CC1(N)CCN(c2cnc(Sc3ccc(Cl)cc3)c(N)n2)CC1`, the shift in melting temperature (ΔTm) worked out at 0.43 °C. Regarding `CC1(N)CCN(c2cnc(Sc3ccccc3F)c(N)n2)CC1`, the ΔTm turned out to be 2.88 °C. Turning to `CC1(N)CCN(c2cnc(Sc3ccccc3Br)c(N)n2)CC1`, the shift in melting temperature (ΔTm) was found to be 4.47 °C. For `CC1(N)CCN(c2cnc(Sc3cccc4ccccc34)c(N)n2)CC1`, the ΔTm came to 3.6 °C.

For `CC1(O)CCN(c2cnc(-c3cccc(Cl)c3Cl)c(N)n2)CC1`, the ΔTm stood at 0.435 °C. Next, `Cc1ccccc1Sc1ncc(N2CCC(C)(N)CC2)nc1N`: 1.75 °C; `Nc1nc(N2CCC(O)CC2)cnc1-c1cccc(Cl)c1Cl`: 0.36 °C. In the case of `NCCC1CCN(c2cnc(-c3cccc(Cl)c3Cl)c(N)n2)CC1`, the ΔTm amounted to 2.31 °C. Then `CC1(N)CCN(c2cnc(SCc3ccccc3)c(N)n2)CC1`, with 0.38 °C; and `CC1(N)CCN(c2cnc(-c3ccc(C#N)cc3)c(N)n2)CC1`, with 0.275 °C.

In the case of `CC1(N)CCN(c2cnc(SCc3ccccc3Cl)c(N)n2)CC1`, the ΔTm is 0.44 °C. Consider `COc1ccccc1Sc1ncc(N2CCC(C)(N)CC2)nc1N`, for which the shift in melting temperature (ΔTm) worked out at 3.79 °C. Regarding `CC1(N)CCN(c2cnc(Sc3cccc(Cl)c3)c(N)n2)CC1`, the ΔTm is 1.7 °C. For the compound `NCC1CCN(c2cnc(Sc3cccc(Cl)c3Cl)c(N)n2)CC1`, the ΔTm came out at 4.93 °C. As for `CC1(N)CCN(c2cnc(Sc3cccc(Cl)c3Cl)c(N)n2)CC1`, the shift in melting temperature (ΔTm) amounted to 6.24 °C. Consider `CC1(N)CCN(c2cnc(Sc3ccccc3Cl)c(N)n2)CC1`, for which the ΔTm worked out at 4.13 °C. For `Nc1nc(N2CCNCC2)cnc1-c1cccc(Cl)c1Cl`, the ΔTm was found to be 3.01 °C. Next, `CC1(N)CCN(c2cnc(Sc3ccc4ccccc4c3)c(N)n2)CC1`: 2.23 °C; `Nc1nc(N2CCC(N)CC2)cnc1-c1cccc(Cl)c1Cl`: 1.72 °C.

As to `Nc1nc(N2CC[C@H](N)C2)cnc1-c1cccc(Cl)c1Cl`, the ΔTm is 1.92 °C. In the case of `CN1CCN(c2cnc(-c3cccc(Cl)c3Cl)c(N)n2)CC1`, the ΔTm is 3.2 °C.

On to `CC1(N)CCN(c2cnc(SC3CCCCC3)c(N)n2)CC1`, for which the ΔTm was 0.88 °C. In the case of `Cc1ccc(-c2ncc(N3CCC(C)(N)CC3)nc2N)cc1`, the ΔTm is 0.42 °C. On to `CN(CCN)c1cnc(-c2cccc(Cl)c2Cl)c(N)n1`, for which the ΔTm turned out to be 1.06 °C.

Turning to `NCC1CCN(c2cnc(-c3cccc(Cl)c3Cl)c(N)n2)CC1`, the thermal shift (ΔTm) amounted to 3.67 °C. Take `CC1(N)CCN(c2cnc(-c3cccc(Cl)c3Cl)c(N)n2)CC1`: the thermal shift (ΔTm) stood at 4.37 °C.
